By EC10 is commonly meant the point of the concentration-response curve where the effect stands at 10%. Broadly, the EC25 is the concentration needed for an effect of 25%. A word on the EC50: it is the midpoint of the concentration-response curve. The LD50 is the dose expected to kill half of the subjects tested.

This is an account of results in article PMC7290365, “Human Induced Pluripotent Stem Cell-Derived 3D-Neurospheres Are Suitable for Neurotoxicity Screening” (Cells, 2020).

Counter-ions that a name gives are not always drawn. Like-named read-outs stand apart in the source and are kept apart here.

In one data set the test system is humans. The settings on record: ref PubChem database (https://pubchem.ncbi.nlm.nih.gov/), cited from earlier work.
Data set [1] deals with hiPSC-derived 3D neurospheres. In words: cells. The class given is cell-based, human. The settings on record: for EC10 / EC25 / EC50: Homo sapiens, 72 h. On the procedure:
After thawing, NSCs (generated as detailed above) were cultured on POL/L (0.002%/1 µg/cm^2) coated plates (50,000 cells/cm^2). When reached 100% confluence NSCs were propagated with Accutase treatment and single-cell suspension was plated onto a low-adherent 96-well plate with 10,000 cells/well in NMM medium. […] Samples were collected at Day 0 (D0), Day 2 (D2), and weekly intervals from the end of the 1st week (D7) until the end of the 6th week (D14, D21, D28, D35, and D42).
Eleven well-known compounds were tested in 7 different concentrations to generate concentration-response curves. The tested compounds with the used concentrations are detailed in Table S3. […] In each assay plate, 4 technical replicates were applied from each sample and 3 biological replicate assays were run (n = 3). The 3D cell cultures were exposed to the toxicants for 72 h (exposure schemes are detailed in Figure 5A or Figure 6A or Figure 7A). Vehicle control was used as a regular medium supplemented with 0.1% DMSO.
ATP viability assay was performed with CellTiter-Glo® 3D Cell Viability Assay, according to the manufacturer’s protocol (Promega). Neurospheres were lysed with 100 μL CellTiter-Glo® 3D Reagent for 60 min at RT. Luminescence signal was recorded with a Thermo VarioScan Flash (Thermo Fisher Scientific) plate reader.
All results were analyzed using Prism 5 (GraphPad Software, La Jolla, CA, USA) and handled in Microsoft Office 2010 (Microsoft, Redmond, WA, USA) software. For normalization of the concentration response, the average values of positive control were used as 0% and the average of vehicle control served as 100%. Four parameter curve fitting methods were used to determine EC10 and EC50 values, where the data on the graphs represent the average of three biological replicates. The “n” value corresponds to the number of biological replicates for each tested concentration. Analysis of data is presented as the mean ± SEM. Significance of data was determined with paired T test for RT-qPCR (* p < 0.01) and with One-way ANOVA for concentration response (* p < 0.05; ** p < 0.01).

The test system of data set [2] is in vitro multicellular cytotoxicity. The settings on record: multicellular cytotoxicity "comptox" data; ref EPA's Chemical dashboard (https://comptox.epa.gov/dashboard); cited from earlier work.
The next data set deals with rat. Also on record: method as in PubChem database (https://pubchem.ncbi.nlm.nih.gov/). To be noted: ref PubChem database (https://pubchem.ncbi.nlm.nih.gov/), cited from earlier work.
Where [3] appears, read: D21 3D neurospheres, 72 h exposure.
Where [4] appears, read: D21 stage, 72 h exposure, investigated concentration range.
The mark [5] stands for this setting: D21 3D neurospheres, 72 h exposure, read-out: EC10 (cell viability) (converted).
The mark [6] stands for this setting: D21 3D neurospheres, 72 h exposure, read-out: EC25 (cell viability) (converted).
The mark [7] stands for this setting: D21 3D neurospheres, 72 h exposure, read-out: EC50 (cell viability) (converted).
The mark [8] stands for this setting: D28 3D neurospheres, 72 h exposure, read-out: EC10 (cell viability) (converted).
The mark [9] stands for this setting: D28 3D neurospheres, 72 h exposure, read-out: EC25 (cell viability) (converted).
[10] abbreviates: D28 3D neurospheres, 72 h exposure, read-out: EC50 (cell viability) (converted).
Where [11] appears, read: D42 3D neurospheres, 72 h exposure, read-out: EC10 (cell viability) (converted).
The mark [12] stands for this setting: D42 3D neurospheres, 72 h exposure, read-out: EC25 (cell viability) (converted).
[13] abbreviates: D42 3D neurospheres, 72 h exposure, read-out: EC50 (cell viability) (converted).
Where [14] appears, read: D28 3D neurospheres, 72 h exposure.
Where [15] appears, read: D42 3D neurospheres, 72 h exposure.
The mark [16] stands for this setting: read-out: EC10 (cell viability).
Where [17] appears, read: read-out: EC25 (cell viability).
The mark [18] stands for this setting: read-out: EC50 (cell viability).

On to `CC(C)Cc1ccc(C(C)C(=O)O)cc1` (stereo not drawn) [Ibuprofen, α-Methyl-4-(isobutyl)phenylacetic acid], for which the “Consumed dose at which overdose symptoms appear” value in the data set with humans (individuals) is recorded as more than 99 mg/kg. The “EC50 (cell viability)” value in data set [1] (setting [3]) was more than 2 log µM. In addition, the “Effect on viability of 3D neurospheres (in words)” value (from here on “Effect on viability”) in data set [1] (setting [4]) is recorded as “did not decrease the viability”. Also, the concentration for an effect of 10% (EC10) in data set [1] (setting [5]), in data set [1] (setting [8]) and in data set [1] (setting [11]) was more than 100 µM in each case. The EC25 in data set [1] (setting [6]), in data set [1] (setting [9]) and in data set [1] (setting [12]) was more than 100 µM in each case. Besides, the half-maximal effective concentration (EC50) in data set [1] (setting [7]), in data set [1] (setting [10]) and in data set [1] (setting [13]) was more than 100 µM throughout. In addition, the “Effect on cell viability (in words)” value in data set [1] (investigated concentration range, D21, D28, D42 neurospheres) is given as “no effect on neuronal cell viability”.
For the compound `Oc1c(Cl)cc(Cl)c(Cl)c1Cc1c(O)c(Cl)cc(Cl)c1Cl` [Hexachlorophene, 2,2′-Methylenebis(3,4,6-trichlorophenol)], the “In vitro cytotoxicity limit” value in data set [2] is 1.86 µM. Further, the LD50 in the data set with rat (oral) is listed as 66 mg/kg. For the same compound, the “Effect on viability” value in data set [1] (setting [4]) is “had a strong effect on the viability, but did not kill all the cells”. Further, the EC10 in data set [1] (setting [5]) is 0.631 µM; in data set [1] (setting [8]), 0.257 µM; in data set [1] (setting [11]) it was 0.0661 µM. The EC25 in data set [1] (setting [6]) is 3.39 µM; in data set [1] (setting [9]) it was 1.62 µM; in data set [1] (setting [12]), 0.457 µM. Further, the EC50 in data set [1] (setting [7]) was 18.2 µM; in data set [1] (setting [10]) it was 10.2 µM; in data set [1] (setting [13]) it was 3.16 µM.
With `C=CC(N)=O` [Acrylamide, 2-Propenamide], in data set [1], the “EC10 (cell viability)” value is on record as more than 3.5 log µM and the “EC25 (cell viability)” value was more than 3.5 log µM.
In the case of `[Cl][Hg][Cl]` [Mercury(II) chloride], the “In vitro cytotoxicity limit” value in data set [2] was 1.37 µM. The “Probable oral lethal dose in humans” value with humans (oral) was 5 to 50 mg/kg. Also, in data set [1] (setting [3]), the “EC10 (cell viability)” value worked out at 1.1 log µM, the “EC25 (cell viability)” value is 1.5 log µM and the “EC50 (cell viability)” value is reported as 1.87 log µM. Moreover, the “Effect on viability” value in data set [1] (setting [4]) is recorded as “caused maximum cell death”. In data set [1] (setting [14]), the “EC10 (cell viability)” value turned out to be 1.4 log µM, the “EC25 (cell viability)” value was determined as 1.60 log µM and the “EC50 (cell viability)” value is listed as 1.83 log µM. Also, in data set [1] (setting [15]), the “EC10 (cell viability)” value stood at 1.34 log µM, the “EC25 (cell viability)” value is on record as 1.54 log µM and the “EC50 (cell viability)” value is 1.74 log µM.
Turning to `C[n+]1ccc(-c2cc[n+](C)cc2)cc1` [Paraquat, 1,1′-Dimethyl-4,4′-bipyridinium dichloride hydrate], the “Probable oral lethal dose in humans” value with humans (oral) is “• - Herbicide; • - neurotoxic: occupational exposures leading to Parkinson’s disease [74]; • - widely investigated neurotoxic mechanism [75, 76]; and • - probable oral lethal dose in humans is 35 mg/kg”. Moreover, the “Effect on viability” value in data set [1] (setting [4]) is “caused maximum cell death”. For the same compound, the EC10 is 14.1 µM in data set [1] (setting [5]), 22.4 µM in data set [1] (setting [8]) and 12.3 µM in data set [1] (setting [11]). Also, the concentration for an effect of 25% (EC25) in data set [1] (setting [6]) was 33.1 µM; in data set [1] (setting [9]), 46.8 µM; in data set [1] (setting [12]), 27.5 µM. Further, the half-maximal effective concentration (EC50) is 77.6 µM in data set [1] (setting [7]), 95.5 µM in data set [1] (setting [10]) and 61.7 µM in data set [1] (setting [13]).
Consider `COc1cc2c(c(OC)c1OC)-c1ccc(OC)c(=O)cc1[C@@H](NC(C)=O)CC2` [Colchicine, (S)-N-(5,6,7,9-Tetrahydro-1,2,3,10-tetramethoxy-9-oxobenzo[a]heptalen-7-yl)acetamide], for which, in data set [2], the “In vitro cytotoxicity limit” value is 0.02 µM. In addition, the “Probable oral lethal dose in humans” value in the data set on humans (oral) was less than 5 mg/kg. The “Effect on viability” value in data set [1] (setting [4]) is given as “had a strong effect on the viability, but did not kill all the cells”. Besides, the 10% effect concentration (EC10) in data set [1] (read-out: EC10 (cell viability), D21 3D neurospheres, 72 h exposure) was 0.000257 µM; in data set [1] (read-out: EC10 (cell viability), D42 3D neurospheres, 72 h exposure), 0.000282 µM. In addition, the 25% effect concentration (EC25) in data set [1] (read-out: EC25 (cell viability), D21 3D neurospheres, 72 h exposure) was 0.00912 µM; in data set [1] (read-out: EC25 (cell viability), D28 3D neurospheres, 72 h exposure), 0.0129 µM; in data set [1] (read-out: EC25 (cell viability), D42 3D neurospheres, 72 h exposure), 0.00575 µM.
On to `CC(=O)Nc1ccc(O)cc1` [Paracetamol, 4′-Hydroxyacetanilide], for which, in the data set with rat (oral), the LD50 is listed as 2400 mg/kg. Moreover, the “Acute overdose at which hepatic toxicity occurred in humans” value with humans is listed as more than 10 g. For the same compound, in data set [1], the “EC50 (cell viability)” value is given as more than 2 log µM and the “Effect on viability” value is on record as “minimal effect on the viability”. Moreover, in data set [1] (setting [16]), the 10% effect concentration (EC10) was more than 100 µM. For the same compound, in data set [1] (setting [17]), the 25% effect concentration (EC25) was more than 100 µM. Further, the EC50 in data set [1] (setting [18]) was more than 100 µM.
Consider `CO[C@H]1/C=C/O[C@@]2(C)Oc3c(C)c(O)c4c(O)c(c(/C=N/N5CCN(C)CC5)c(O)c4c3C2=O)NC(=O)/C(C)=C\C=C\[C@H](C)[C@H](O)[C@@H](C)[C@@H](O)[C@@H](C)[C@H](OC(C)=O)[C@@H]1C` [Rifampicin, 3-(4-Methylpiperazinyliminomethyl)rifamycin], for which, in the data set on rat (route not given), the LD50 is 1570 mg/kg. Further, in the data set on humans (oral), the “Probable lethal oral dose in humans” value is 14 to 60 g. In data set [1], the “EC50 (cell viability)” value is reported as more than 2 log µM and the “Effect on viability” value is reported as “reduced the viability”. The concentration for an effect of 10% (EC10) in data set [1] (setting [16]) was more than 100 µM. Besides, the 25% effect concentration (EC25) in data set [1] (setting [17]) was more than 100 µM. Besides, the EC50 in data set [1] (setting [18]) is more than 100 µM.
For `COc1cccc2c1C(=O)c1c(O)c3c(c(O)c1C2=O)C[C@@](O)(C(=O)CO)C[C@@H]3O[C@H]1C[C@H](N)[C@H](O)[C@H](C)O1` [Doxorubicin, Doxorubicin hydrochloride], the LD50 result in the data set with rat (subcutaneous) was “• - Intercalating chemotherapy drug; • - inhibiting the movement of topoisomerase II, which leads to the blocking of both replication and transcription; and • - LD50: 21.8 mg/kg (rat, subcutaneous)”. Further, the “Effect on viability” value in data set [1] (setting [4]) is given as “caused maximum cell death”. Further, the EC10 is 0.263 µM in data set [1] (setting [5]), 2.14 µM in data set [1] (setting [8]) and 3.09 µM in data set [1] (setting [11]). The 25% effect concentration (EC25) in data set [1] (setting [6]) is 1.1 µM; in data set [1] (setting [9]), 5.25 µM; in data set [1] (setting [12]), 7.94 µM. Also, the EC50 in data set [1] (setting [7]) is 4.68 µM; in data set [1] (setting [10]), 12.9 µM; in data set [1] (setting [13]) it was 20.9 µM.
